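Following 48 hours of exposure in 96-well plates, responses at five concentrations were used to interpolate endpoints linearly. Definition used: TGI = concentration required for complete inhibition of growth.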
What was measured:
Assay in all cases: NCI anticancer screen, dose series, 48 h
[1] = tested on: HOP-62 NSCLC
[2] = tested on: SR leukemia
[3] = tested on: SF-539 CNS
[4] = tested on: MDA-N
[5] = tested on: NCI-H226 lung
[6] = tested on: MCF7 breast
[7] = tested on: SK-OV-3 ovarian
[8] = tested on: DU-145 prostate
[9] = tested on: NCI-H522 lung
[10] = tested on: OVCAR-4 ovarian
[11] = tested on: HCT-15 colon
[12] = tested on: SW-620 colon
[13] = tested on: K-562 leukemia
[14] = tested on: HL-60(TB) leukemia
[15] = tested on: MDA-MB-231 breast
[16] = tested on: IGROV1 ovarian
[17] = tested on: HT29 colon
[18] = tested on: CCRF-CEM leukemia
[19] = tested on: ACHN renal
[20] = tested on: SN12C renal
[21] = tested on: SNB-19 CNS
[22] = tested on: HCC-2998 colon
[23] = tested on: NCI-H23 lung
[24] = tested on: A549 NSCLC
[25] = tested on: PC-3 prostate
[26] = tested on: OVCAR-5 ovarian
[27] = tested on: HOP-92 NSCLC
[28] = tested on: A498 renal
[29] = tested on: SF-295 CNS
[30] = tested on: MDA-MB-435
[31] = tested on: OVCAR-3 ovarian
[32] = tested on: HS 578T breast
[33] = tested on: NCI-H460 lung
[34] = tested on: UACC-257 melanoma
[35] = tested on: LOX IMVI melanoma
[36] = tested on: T-47D breast
[37] = tested on: SNB-75 CNS
[38] = tested on: 786-0 renal
[39] = tested on: MALME-3M melanoma
[40] = tested on: TK-10 renal
[41] = tested on: HCT-116 colon
[42] = tested on: EKVX NSCLC
[43] = tested on: SF-268 CNS
[44] = tested on: U251 CNS
[45] = tested on: OVCAR-8 ovarian
[46] = tested on: CAKI-1 renal
[47] = tested on: M14 melanoma
[48] = tested on: UACC-62 melanoma
[49] = tested on: RXF 393 renal
[50] = tested on: COLO 205 colon
[51] = tested on: MOLT-4 leukemia
[52] = tested on: SK-MEL-28 melanoma
[53] = tested on: NCI/ADR-RES ovarian
[54] = tested on: KM12 colon
[55] = tested on: UO-31 renal
[56] = tested on: RPMI-8226 leukemia
[57] = tested on: SK-MEL-5 melanoma
[58] = tested on: SK-MEL-2 melanoma
[59] = tested on: BT-549 breast

CCOC(=O)c1c(SC(=O)c2ccc(Cl)cc2)n(-c2ccccc2)c(=S)n(-c2ccccc2)c1=O
TGI [1]: > 100 µM | TGI [2]: > 100 µM | TGI [3]: > 100 µM | TGI [4]: > 100 µM | TGI [5]: > 100 µM | TGI [6]: > 100 µM | TGI [7]: > 100 µM | TGI [8]: > 100 µM | TGI [9]: > 100 µM | TGI [10]: > 100 µM | TGI [11]: > 100 µM | TGI [12]: > 100 µM | TGI [13]: > 100 µM | TGI [14]: > 100 µM | TGI [15]: > 100 µM | TGI [16]: > 100 µM | TGI [17]: > 100 µM | TGI [18]: > 100 µM | TGI [19]: > 100 µM | TGI [20]: > 100 µM | TGI [21]: > 100 µM | TGI [22]: > 100 µM | TGI [23]: > 100 µM | TGI [24]: > 100 µM | TGI [25]: > 100 µM | TGI [26]: > 100 µM | TGI [27]: > 100 µM | TGI [28]: > 100 µM | TGI [29]: > 100 µM | TGI [30]: > 100 µM | TGI [31]: > 100 µM | TGI [32]: > 100 µM | TGI [33]: > 100 µM | TGI [34]: > 100 µM | TGI [35]: > 100 µM | TGI [36]: > 100 µM | TGI [37]: > 100 µM | TGI [38]: > 100 µM | TGI [39]: > 100 µM | TGI [40]: > 100 µM | TGI [41]: > 100 µM | TGI [42]: > 100 µM | TGI [43]: > 100 µM | TGI [44]: > 100 µM | TGI [45]: > 100 µM | TGI [46]: > 100 µM | TGI [47]: > 100 µM | TGI [48]: > 100 µM | TGI [49]: > 100 µM | TGI [50]: > 100 µM | TGI [51]: > 100 µM | TGI [52]: > 100 µM | TGI [53]: > 100 µM | TGI [54]: > 100 µM

CC(=O)OC1C2CCC3CC2C2(SCCS2)C31 (stereo not given)
TGI [1]: > 100 µM | TGI [2]: > 100 µM | TGI [3]: > 100 µM | TGI [4]: > 100 µM | TGI [5]: > 100 µM | TGI [55]: > 100 µM | TGI [6]: > 100 µM | TGI [7]: > 100 µM | TGI [8]: > 100 µM | TGI [9]: > 100 µM | TGI [10]: > 100 µM | TGI [11]: > 100 µM | TGI [12]: > 100 µM | TGI [13]: > 100 µM | TGI [14]: > 100 µM | TGI [15]: > 100 µM | TGI [16]: > 100 µM | TGI [17]: > 100 µM | TGI [19]: > 100 µM | TGI [20]: > 100 µM | TGI [21]: > 100 µM | TGI [22]: > 100 µM | TGI [23]: > 100 µM | TGI [24]: > 100 µM | TGI [25]: > 100 µM | TGI [26]: > 100 µM | TGI [27]: > 100 µM | TGI [28]: > 100 µM | TGI [29]: > 100 µM | TGI [30]: > 100 µM | TGI [31]: > 100 µM | TGI [32]: > 100 µM | TGI [33]: > 100 µM | TGI [34]: > 100 µM | TGI [35]: > 100 µM | TGI [36]: > 100 µM | TGI [56]: > 100 µM | TGI [38]: > 100 µM | TGI [39]: > 100 µM | TGI [40]: > 100 µM | TGI [41]: > 100 µM | TGI [42]: > 100 µM | TGI [57]: > 100 µM | TGI [43]: > 100 µM | TGI [44]: > 100 µM | TGI [45]: > 100 µM | TGI [47]: > 100 µM | TGI [48]: > 100 µM | TGI [49]: > 100 µM | TGI [50]: > 100 µM | TGI [51]: > 100 µM | TGI [58]: > 100 µM | TGI [52]: > 100 µM | TGI [53]: > 100 µM | TGI [54]: > 100 µM

CC1(C)Cc2ccccc2C(C)(Cl)C(=O)N1 (stereo not given)
TGI [1]: > 10 µM | TGI [2]: > 10 µM | TGI [59]: > 10 µM | TGI [3]: > 10 µM | TGI [4]: > 10 µM | TGI [5]: > 10 µM | TGI [55]: > 10 µM | TGI [6]: > 10 µM | TGI [8]: > 10 µM | TGI [10]: > 10 µM | TGI [11]: > 10 µM | TGI [12]: > 10 µM | TGI [13]: > 10 µM | TGI [14]: > 10 µM | TGI [15]: > 10 µM | TGI [16]: > 10 µM | TGI [17]: > 10 µM | TGI [18]: > 10 µM | TGI [19]: > 10 µM | TGI [20]: > 10 µM | TGI [21]: > 10 µM | TGI [22]: > 10 µM | TGI [23]: > 10 µM | TGI [24]: > 10 µM | TGI [25]: > 10 µM | TGI [26]: > 10 µM | TGI [27]: > 10 µM | TGI [28]: > 10 µM | TGI [29]: > 10 µM | TGI [30]: > 10 µM | TGI [31]: > 10 µM | TGI [33]: > 10 µM | TGI [34]: > 10 µM | TGI [36]: > 10 µM | TGI [56]: > 10 µM | TGI [38]: > 10 µM | TGI [39]: > 10 µM | TGI [40]: > 10 µM | TGI [41]: > 10 µM | TGI [42]: > 10 µM | TGI [43]: > 10 µM | TGI [44]: > 10 µM | TGI [45]: > 10 µM | TGI [46]: > 10 µM | TGI [47]: > 10 µM | TGI [48]: > 10 µM | TGI [49]: > 10 µM | TGI [50]: > 10 µM | TGI [51]: > 10 µM | TGI [52]: > 10 µM | TGI [53]: > 10 µM | TGI [54]: > 10 µM

CSCCC(NC(=O)C(Cc1c[nH]c2ccccc12)NC(=O)CCNC(=O)OC(C)(C)C)C(=O)NC(CC(=O)O)C(=O)NC(Cc1ccccc1)C(N)=O (stereo not given)
TGI [1]: > 50 µM | TGI [59]: > 50 µM | TGI [3]: > 50 µM | TGI [4]: > 50 µM | TGI [5]: > 50 µM | TGI [6]: > 50 µM | TGI [7]: > 50 µM | TGI [8]: > 50 µM | TGI [9]: > 50 µM | TGI [12]: > 50 µM | TGI [13]: > 50 µM | TGI [14]: > 50 µM | TGI [15]: > 50 µM | TGI [16]: > 50 µM | TGI [17]: > 50 µM | TGI [18]: > 50 µM | TGI [20]: > 50 µM | TGI [22]: > 50 µM | TGI [24]: > 50 µM | TGI [25]: > 50 µM | TGI [26]: > 50 µM | TGI [27]: > 50 µM | TGI [28]: > 50 µM | TGI [29]: > 50 µM | TGI [30]: > 50 µM | TGI [31]: > 50 µM | TGI [32]: > 50 µM | TGI [34]: > 50 µM | TGI [35]: > 50 µM | TGI [36]: > 50 µM | TGI [56]: > 50 µM | TGI [37]: > 50 µM | TGI [38]: > 50 µM | TGI [40]: > 50 µM | TGI [41]: > 50 µM | TGI [42]: > 50 µM | TGI [57]: > 50 µM | TGI [43]: > 50 µM | TGI [44]: > 50 µM | TGI [46]: > 50 µM | TGI [47]: > 50 µM | TGI [48]: > 50 µM | TGI [49]: > 50 µM | TGI [50]: > 50 µM | TGI [51]: > 50 µM | TGI [58]: > 50 µM | TGI [52]: > 50 µM | TGI [53]: > 50 µM | TGI [54]: > 50 µM
